Measurements reported in patent US7700628B2, “Aromatic ether derivatives useful as thrombin inhibitors” (Eli Lilly and Company, priority 2004, dated 2010).
Where a name gives a salt, the structure may show the parent alone.

What was measured:
[1] = biological target: human thrombin (Homo sapiens, UniProt P00734); test: Kass determination, chromogenic substrate hydrolysis, thrombin; assay type: biochemical; conditions: apparent association constant, mean value; set range given with 'or greater'
Description: (§1) The inhibition by a compound of the invention of a serine protease of the human blood coagulation system or of the fibrinolytic system, as well as of trypsin, is determined in vitro for the particular enzyme by measuring its inhibitor binding affinity in an assay in which the enzyme hydrolyzes a particular chromogenic substrate, for example as described in Smith, G. F.; Gifford-Moore, D.; Craft, T. J.; Chirgadze, N.; Ruterbories, K. J.; Lindstrom, T. D.; Satterwhite, J. H. Efegatran: A New Cardiovascular Anticoagulant. New Anticoagulants for the Cardiovascular Patient; Pifarre, R., Ed.; Hanley & Belfus, Inc.: Philadelphia, 1997; pp. 265-300. The inhibitor binding affinity is measured as apparent association constant Kass which is the hypothetical equilibrium constant for the reaction between enzyme and the test inhibitor compound (I).
(§2) [formula] [formula] Conveniently, enzyme inhibition kinetics are performed in a high-volume protocol using automated dilutions of inhibitors (n=3 for each of four to eight inhibitor concentrations) into 96-well polystyrene plates and reaction rates are determined from the rate of hydrolysis of appropriate p-nitroanilide substrates at 405 nm using a Thermomax plate reader from Molecular Devices (San Francisco, Calif.). The same general protocol is followed for all enzymes studied: In each well is placed 50 μL buffer (0.06 M Tris, 0.3 M NaCl, pH 7.4), followed by 25 μL of inhibitor solution (in 100 % methanol) and 25 μL enzyme solution (e.g., human factor Xa, 32 nM in 0.03 M Tris, 0.15 M NaCl, 1 mg/mL HAS); finally, within two minutes, 150 μL aqueous solution of chromogenic substrate (e.g., 0.3 mM BzIle-Glu-Gly-Arg-pNA) is added to start the enzymatic reaction. Final factor Xa concentration is 3.2 nM. The rates of chromogenic substrate hydrolysis reactions provide a linear relationship with the enzymes studied such that free enzyme can be quantitated in reaction mixtures. Data is analyzed directly as rates by the Softmax program to produce [free enzyme] calculations for tight-binding Kass determinations. For apparent Kass determinations, human factor Xa is used to hydrolyze BzIle-Glu-Gly- Arg-pNA (SEQ ID NO: 1); 5.9 nM human thrombin is used to hydrolyze 0.2 mM BzPhe-Val-Arg-pNA; 3.4 nM human plasmin is used with 0.5 mM HD-Val-Leu-Lys-pNA; 1.2 nM human nt-PA is used with 0.8 mM HD-Ile-Pro-Arg-pNA; and 0.4 nM urokinase is used with 0.4 mM pyro-Glu-Gly-Arg-pNA.
(§3) Kass is calculated for a range of concentrations of test compounds which produce hydrolysis inhibition of between 20% and 80% of control and the mean value reported in units of liter per mole. […] For example, the respective Kass values as to factor Xa/thrombin for Examples 41, 60, 106, 115, 1403 and 1414 are 407/16.9, 430/4.2, 3630/308, 3013/40 and 3630/308×10^6 L/mole.

[2] = biological target: T1, human factor Xa (Homo sapiens, UniProt P00742); test: Kass determination, chromogenic substrate hydrolysis, factor Xa; assay type: biochemical; conditions: apparent association constant, mean value; set range given with 'or greater'
T1 construct: enzyme solution (e.g., human factor Xa, 32 nM in 0.03 M Tris, 0.15 M NaCl, 1 mg/mL HAS)
T1 sequence (P00742 235-488 limits assumed): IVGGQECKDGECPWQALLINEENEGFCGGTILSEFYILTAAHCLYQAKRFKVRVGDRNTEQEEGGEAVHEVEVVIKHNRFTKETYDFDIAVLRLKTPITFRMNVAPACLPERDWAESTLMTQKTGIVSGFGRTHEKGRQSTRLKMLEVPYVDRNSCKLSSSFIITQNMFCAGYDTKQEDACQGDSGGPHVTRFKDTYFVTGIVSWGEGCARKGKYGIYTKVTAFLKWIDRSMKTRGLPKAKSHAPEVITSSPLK
T1 sequence (P00742 41-179 partner limits assumed): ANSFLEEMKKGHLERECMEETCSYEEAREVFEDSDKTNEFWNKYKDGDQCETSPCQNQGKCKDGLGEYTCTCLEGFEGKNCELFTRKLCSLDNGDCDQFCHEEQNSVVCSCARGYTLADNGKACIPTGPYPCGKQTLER
Description: as §1, §2, §3

SMILES | Kass for thrombin (factor IIa) [1] [L/mol] | Kass for factor Xa [2] [L/mol] | melting point [°C]
NCCOc1cc(N2CCOCC2)ccc1C(=O)Nc1ccc(F)cc1C(=O)Nc1ccc(Cl)cn1 [Example 41, 2-[2-(2-Aminoethoxy)-4-(morpholin-4-yl)benzoylamino]-N-(5-chloro-pyridin-2-yl)-5-fluorobenzamide Trifluoroacetate] | 1.69e+07 | 4.07e+08 | 
CSc1ccc(C(=O)Nc2ccc(Cl)cc2C(=O)Nc2ccc(Cl)cn2)c(OCCCN)c1 [Example 106, 2-[2-(3-Aminopropoxy)-4-(methylthio)benzoylamino]-5-chloro-N-(5-chloropyridin-2-yl)benzamide] | 3.08e+08 | 3.63e+09 | 
NCCCOc1cc(N2CCOCC2)ccc1C(=O)Nc1ccc(F)cc1C(=O)Nc1ccc(Cl)cn1 [Example 115, 2-[2-(3-Aminopropoxy)-4-(morpholin-4-yl)benzoylamino]-N-(5-chloropyridin-2-yl)-5-fluorobenzamide] | 4e+07 | 3.013e+09 | 

The remaining lines, values ahead:

Kass for thrombin (factor IIa) [1] [L/mol] | Kass for factor Xa [2] [L/mol] | melting point [°C] | SMILES
 |  | 153.6 to 154.5 | CC(C)(C)c1ccc(CNc2ccc(Cl)cc2C(=O)Nc2ccc(Cl)cn2)c(OC2CCNCC2)c1 [Example 56, 2-[4-(tert-Butyl)-2-(piperidin-4-yloxy)benzylamino]-5-chloro-N-(5-chloropyridin-2-yl)benzamide]
 |  | 169 to 170 | CC(C)(C)c1ccc(CNc2ccccc2C(=O)Nc2ccc(Cl)cn2)c(OC2CCNCC2)c1 [Example 59, 2-[4-(tert-Butyl)-2-(piperidin-4-yloxy)benzylamino]-N-(5-chloro-pyridin-2-yl)benzamide]
4.2e+06 | 4.3e+08 |  | CC(C)(N)c1ccc(C(=O)Nc2ccccc2C(=O)Nc2ccc(Cl)cn2)c(OC2CCNCC2)c1 [Example 60, 2-[4-(1-Amino-1-methyl)ethyl-2-(piperidin-4-yloxy)benzoylamino]-N-(5-chloropyridin-2-yl)benzamide Bis(trifluoroacetate)]
